Test results reported in patent US20180344726A1, “ABUSE RESISTANT TRANSDERMAL DELIVERY DEVICES AND COMPOSITIONS COMPRISING AN OPIOID AGONIST AND A NON-TRANSDERMALLY DELIVERED N-OXIDE DERIVATIVE OF AN OPIOID ANTAGONIST FOR THE TREATMENT OF PAIN” (priority 2015, published 2018).
Where two headings read alike, the source gives them in different places.

Columns and labels:
Type in all cases: physicochemical
[1] = pKa analysis by pH-metric triple titration; conditions: aqueous solution, […] C., […] KCl, read-out: pKa
Procedure: (§1) pKa analysis was performed using a pH-metric method. […] No precipitation or degradation was observed and two pKas were determined from the potentiometric data. Log P was determined using the potentiometric (pH-metric method). The sample was titrated in various ratios of octanol/water in two titrations covering the pH range 2.0-12.0 at concentrations of 1.9-1.1 mM. The shift of the aqueous pKas in the presence of octanol was used to determine the log P of the neutral species.

[2] = Log P by potentiometric (pH-metric) octanol/water titration; conditions: Neutral species, 25.0 ° C., 0.15M KCl, read-out: LogP
Procedure: as §1

[3] = Concentration of saturated antagonist solutions in phosphate buffer pH 5.0; conditions: phosphate buffer pH 5.0, stirred overnight, filtered
Procedure: The determination of in vitro skin permeation was performed with saturated solutions of the respective antagonist species. Therefore an excess of the antagonist was weighed in phosphate buffer of pH 5.0 and stirred overnight. pH was monitored and, if necessary, adjusted. The cells were incubated at 32° C. Solutions were filtrated through a syringe filter (1 μm PTFE) prior to application into the diffusion cells. Concentrations of the solutions were determined.
The determination of naloxone and naloxone N-oxide in the acceptor medium of the in vitro skin permeations samples (receptor phase) was done by HPLC with UV-detection.

**Q.** Which results are given for `C=CCN1CC[C@]23c4c5ccc(O)c4O[C@H]2C(=O)CC[C@@]3(O)[C@H]1C5` [Naloxone, (4R,4aS,7aR,12bS)-4a,9-dihydroxy-3-prop-2-enyl-2,4,5,6,7a,13-hexahydro-1H-4,12-methanobenzofuro[3,2-e]isoquinoline-7-one, reference compound]?
**A.** pKa ([1]; Type Acid): 9.15 ± 0.01; pKa ([1]; Type Base): 8.07 ± 0.01; logP [2]: 1.97; Concentration saturated solution c [3]: 4.46 mg/mL
